Assay results published in PubChem BioAssay (NCI).
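GI50 is the concentration that inhibits growth by half. TGI is the concentration that stops growth completely.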

How the values were obtained:
Experiment in all cases: NCI-60 cell line screen, 384-well format
[1] = system: 786-0 renal
[2] = system: A498 renal
[3] = system: A549 NSCLC
[4] = system: ACHN renal
[5] = system: BT-549 breast
[6] = system: CAKI-1 renal
[7] = system: CCRF-CEM leukemia
[8] = system: COLO 205 colon
[9] = system: DU-145 prostate
[10] = system: EKVX NSCLC
[11] = system: HCC-2998 colon
[12] = system: HCT-116 colon
[13] = system: HCT-15 colon
[14] = system: HL-60(TB) leukemia
[15] = system: HOP-62 NSCLC
[16] = system: HOP-92 NSCLC
[17] = system: HS 578T breast
[18] = system: HT29 colon
[19] = system: IGROV1 ovarian
[20] = system: K-562 leukemia
[21] = system: KM12 colon
[22] = system: LOX IMVI melanoma
[23] = system: M14 melanoma
[24] = system: MALME-3M melanoma
[25] = system: MCF7 breast
[26] = system: MDA-MB-231 breast
[27] = system: MDA-MB-435 melanoma
[28] = system: MDA-MB-468 breast
[29] = system: MOLT-4 leukemia
[30] = system: NCI-H226 lung
[31] = system: NCI-H23 lung
[32] = system: NCI-H322M lung
[33] = system: NCI-H460 NSCLC
[34] = system: NCI-H522 lung
[35] = system: NCI/ADR-RES ovarian
[36] = system: OVCAR-3 ovarian
[37] = system: OVCAR-4 ovarian
[38] = system: OVCAR-5 ovarian
[39] = system: OVCAR-8 ovarian
[40] = system: PC-3 prostate
[41] = system: RPMI-8226 leukemia
[42] = system: RXF 393 renal
[43] = system: SF-268 CNS
[44] = system: SF-295 CNS
[45] = system: SF-539 CNS
[46] = system: SK-MEL-2 melanoma
[47] = system: SK-MEL-28 melanoma
[48] = system: SK-MEL-5 melanoma
[49] = system: SK-OV-3 ovarian
[50] = system: SN12C renal
[51] = system: SNB-19 CNS
[52] = system: SNB-75 CNS
[53] = system: SR leukemia
[54] = system: SW-620 colon
[55] = system: T-47D breast
[56] = system: TK-10 renal
[57] = system: U251 glioblastoma
[58] = system: UACC-257 melanoma
[59] = system: UACC-62 melanoma

With `Cc1cc(-c2ncc(CC(=O)Nc3ccc(-c4cnccn4)cn3)cc2C)ccn1` the GI50 [1] was 59.5 µM, the TGI [1] was > 100 µM and the GI50 [2] was 68.8 µM. The TGI [2] was > 100 µM, the GI50 [3] was > 70.5 µM and the TGI [3] was > 100 µM. The GI50 [4] was 64.4 µM, the TGI [4] was > 100 µM and the GI50 [5] was 32.5 µM. For the same compound, the TGI [5] was > 100 µM, the GI50 [6] was 49.3 µM and the TGI [6] was > 100 µM. For the same compound, the GI50 [7] was 12.2 µM, the TGI [7] was 49 µM and the GI50 [8] was > 93.6 µM. For the same compound, the TGI [8] was > 100 µM, the GI50 [9] was > 100 µM and the TGI [9] was > 100 µM. The GI50 [10] was 21.8 µM, the TGI [10] was > 100 µM and the GI50 [11] was > 88.8 µM. The TGI [11] was > 100 µM, the GI50 [12] was 29 µM and the TGI [12] was > 100 µM. The GI50 [13] was 57.1 µM, the TGI [13] was > 100 µM and the GI50 [14] was 6.52 µM. For the same compound, the TGI [14] was 24.1 µM, the GI50 [15] was 39.7 µM and the TGI [15] was > 100 µM. For the same compound, the GI50 [16] was > 100 µM, the TGI [16] was > 100 µM and the GI50 [17] was > 100 µM. For the same compound, the TGI [17] was > 100 µM, the GI50 [18] was 74.5 µM and the TGI [18] was > 100 µM. For the same compound, the GI50 [19] was 56.3 µM, the TGI [19] was > 100 µM and the GI50 [20] was 10.4 µM. For the same compound, the TGI [20] was > 100 µM, the GI50 [21] was > 82.9 µM and the TGI [21] was > 100 µM. The GI50 [22] was 28.4 µM, the TGI [22] was > 100 µM and the GI50 [23] was > 100 µM. The TGI [23] was > 100 µM, the GI50 [24] was > 100 µM and the TGI [24] was > 100 µM. The GI50 [25] was 27.3 µM, the TGI [25] was > 100 µM and the GI50 [26] was > 100 µM. The TGI [26] was > 100 µM, the GI50 [27] was 38.6 µM and the TGI [27] was > 100 µM. For the same compound, the GI50 [28] was 3.43 µM, the TGI [28] was 33.1 µM and the GI50 [29] was 12.9 µM. For the same compound, the TGI [29] was 26.2 µM, the GI50 [30] was 61.6 µM and the TGI [30] was > 100 µM. For the same compound, the GI50 [31] was 20.5 µM, the TGI [31] was > 100 µM and the GI50 [32] was 43 µM. For the same compound, the TGI [32] was > 100 µM, the GI50 [33] was 28.6 µM and the TGI [33] was > 100 µM. For the same compound, the GI50 [34] was 31.5 µM, the TGI [34] was > 100 µM and the GI50 [35] was 14.4 µM. The TGI [35] was 47.3 µM, the GI50 [36] was > 86.3 µM and the TGI [36] was > 100 µM. The GI50 [37] was 25.5 µM, the TGI [37] was > 100 µM and the GI50 [38] was > 100 µM. The TGI [38] was > 100 µM, the GI50 [39] was 30.3 µM and the TGI [39] was > 100 µM. The GI50 [40] was 51.1 µM, the TGI [40] was > 100 µM and the GI50 [41] was 13.8 µM. The TGI [41] was 34.7 µM, the GI50 [42] was 21.3 µM and the TGI [42] was > 100 µM. For the same compound, the GI50 [43] was > 100 µM, the TGI [43] was > 100 µM and the GI50 [44] was 49.3 µM. For the same compound, the TGI [44] was > 100 µM, the GI50 [45] was > 57.7 µM and the TGI [45] was > 100 µM. The GI50 [46] was 42.6 µM, the TGI [46] was > 100 µM and the GI50 [47] was > 100 µM. The TGI [47] was > 100 µM, the GI50 [48] was 11.6 µM and the TGI [48] was 27.2 µM. For the same compound, the GI50 [49] was > 66 µM, the TGI [49] was > 100 µM and the GI50 [50] was 39.2 µM. The TGI [50] was > 100 µM, the GI50 [51] was 64 µM and the TGI [51] was > 100 µM. For the same compound, the GI50 [52] was > 58.8 µM, the TGI [52] was > 100 µM and the GI50 [53] was 3.81 µM. For the same compound, the TGI [53] was 27.9 µM, the GI50 [54] was 88.6 µM and the TGI [54] was > 100 µM. The GI50 [55] was 9.51 µM, the TGI [55] was > 52.8 µM and the GI50 [56] was 65.7 µM. For the same compound, the TGI [56] was > 100 µM, the GI50 [57] was 48.6 µM and the TGI [57] was > 100 µM. For the same compound, the GI50 [58] was 27.8 µM, the TGI [58] was > 100 µM and the GI50 [59] was 56.1 µM. For the same compound, the TGI [59] was > 100 µM.
